“Also recorded” adds a separate entry of the source.
Assays:
[1] = tested on: lymph node cells and splenocytes; assay: PLP139-151-induced cytokine secretion by cells from PGPC-treated EAE mice; assay type: in vivo, mouse
Method: PLP-stimulated cells from PLP139-151-immunized mice administered PGPC prophylactically: SJL/J mice were co-injected with PGPC and PLP139-151 in CFA and sacrificed 48 days later. Lymph node cells and splenocytes were then harvested and re-stimulated in vitro (2.5×10^6 cells/ml) with 10 μg/ml of PLP139-151 or with media alone. PLP-stimulated cells from untreated PLP139-151-immunized mice: SJL/J mice were immunized with PLP139-151 in CFA and sacrificed 10 days later. Splenocytes were then harvested and re-stimulated in vitro (at 5×10^5 cells/ml) with 10 μg/ml of PLP139-151 in the presence of 30 μg/ml of POPS, PGPC, azPC ester, or azPC. Cytokine production by cells from the lymph nodes and spleens of PGPC co-immunized mice was measured after 66 hours of stimulation by using the BD OptEIA™ Mouse IFN-γ ELISA kit (BD Biosciences). Cytokine assays for the anti-CD3/anti-CD28 antibody-stimulated T cells and PLP139-151-stimulated splenocytes were performed on culture supernatants after 48 hours of stimulation using the BD OptEIA™ Mouse IL-6, IFN-γ, and TNF alpha ELISA kits (BD Biosciences) and the Mouse IL-17 DuoSet ELISA Development kit (R&D Systems).

[2] = tested on: naive MBPAc1-11-TCR transgenic splenocytes; assay: MBPAc1-11-induced cytokine production by MBPAc1-11-TCR transgenic splenocytes; assay type: cell-based, mouse; conditions: 30 μg/ml lipid; for MBPAc1-11-induced IFN-γ production / MBPAc1-11-induced IL-6 production / MBPAc1-11-induced TNF production: 2 μg/ml MBPAc1-11, 48 hours
Method: Splenocytes were harvested from mice transgenic for the MBPAc1-11-specific T-cell receptor and stimulated with 2 μg/ml of MBPAc1-11 in the presence of 30 μg/ml of lipid. Lymph nodes and spleens were also harvested from naive C57BL/6 mice, and CD3^+ T-cell enrichment columns (R&D systems) were used to isolate CD3^+ T cells. […] Cytokine assays were performed on culture supernatants after 24 (IL-12p40) or 48 hours (IFN-γ, IL-6, and TNF) of culture by using the BD OptEIA™ Mouse ELISA kits (BD Biosciences).

RAW 264.7 cells = assay: Proliferation of LPS-stimulated RAW 264.7 macrophage cells; assay type: cell-based, mouse; conditions: 30 μg/ml lipid, 100 ng/ml LPS, 48 hours
Method: LPS-stimulated RAW 264.7 mouse macrophage cells: 1×10^5 cells/ml of RAW 264.7 cells were stimulated with 100 ng/ml of lipopolysaccharide (LPS) in the presence of 30 μg/ml of POPS, PGPC, azPC ester, or azPC.

[3] = tested on: NF-κB and ERK pathways, Bcl-2 family proteins; assay: Immunoblot of inflammatory, survival and apoptotic signaling in anti-CD3/anti-CD28-stimulated T cells; assay type: cell-based, mouse; conditions: 30 μg/ml lipid, 15 min or 24 h
Method: CD3^+ T cells were isolated from the lymph nodes of naïve C57BL/6 mice by using CD3^+ T-cell enrichment columns (R&D systems). […] Cells were washed with ice-cold PBS and lysed in RIPA lysis buffer containing 1X Halt protease and phosphatase inhibitor cocktail (Pierce) with a Dounce homogenizer. Immunoblotting was performed with antibodies against phospho-Bim ([…]), phospho-Bad ([…]), phospho-Bcl-2 ([…]), phospho-IKKα/β (serines 180/181), phospho-p65 ([…]), phospho-ERK1/2 […]), and IκBα from Cell Signaling Technology.

[4] = tested on: CD3+ T cells (gated on CD4+ T cells); assay: T-cell apoptosis, Annexin V and 7AAD staining; assay type: cell-based, mouse; conditions: 30 μg/ml lipid, anti-CD3 and anti-CD28, 48 hours
Method: FIG. 5. […] (C) TUNEL staining of brain and spinal-cord tissue from mice immunized with PLP139-151 peptide (to induce EAE) and treated for 12 h with azPC, POPS, or vehicle on day 15 after immunization. […] (D) Quantification of TUNEL-positive infiltrating cells in brain and spinal cord shown in panel (C). Cells were stained according to standard protocols, run on a FACScan flow cytometer (BD Biosciences), and analysed with CellQuest software (BD Immunocytometry Systems). The antibody conjugate used was FITC anti-CD4, clone GK1.5 (BD Pharmingen). 7AAD staining was performed by using the Annexin V-PE Apoptosis Detection Kit I (BD Pharmingen). Cells were stained according to standard protocols, run on a FACScan flow cytometer (BD Biosciences), and analysed with CellQuest software (BD Immunocytometry Systems) or with FlowJo software version 6.3.2 (Tree Star, Inc.).

B cells = assay: Proliferation of anti-IgM F(ab')2/anti-CD40-stimulated purified B cells; assay type: cell-based, mouse; conditions: 30 μg/ml lipid, anti-IgM F(ab')2 and anti-CD40, 48 hours
Method: Anti-IgM F(ab′)2 fragment/anti-CD40-stimulated purified B cells: We harvested spleens from naive C57BL/6 mice and used a B-cell isolation kit (Miltenyi Biotec) to negatively isolate B cells. We then stimulated 5×10^5 cells/ml of B cells with 5 μg/ml of each of soluble anti-IgM F(ab′)2 fragment (Jackson ImmunoResearch) antibody and anti-CD40 antibody (eBioscience) in the presence of 30 μg/ml of POPS, PGPC, azPC ester, or azPC.

[5] = tested on: infiltrating cells in brain and spinal cord of mice with EAE; assay: TUNEL assay on brain and spinal cord of EAE mice; assay type: in vivo, mouse; conditions: 200 μg i.v. on day 15 after immunization
Method: Mice with EAE were treated intravenously with 200 μg of azPC, 200 μg of POPS, or vehicle (0.05% Tween-20 in PBS) on day 15 after immunization with CFA and PLP139-151 peptide. Mice were treated with lipids for 12, 24, or 48 hours and then sacrificed and perfused with 4% paraformaldehyde. Brains and spinal cords were embedded in paraffin and sectioned. TUNEL-positive cells were detected by using the In Situ Cell Death Kit, AP (Roche) according to the manufacturer's instructions.

SMILES	IFN-γ secretion upon PLP139-151 stimulation ([1]; cells from PGPC-treated vs vehicle-treated EAE mice)	TNF secretion upon PLP139-151 stimulation ([1]; splenocytes from PGPC-treated vs vehicle-treated EAE mice)	MBPAc1-11-induced cytokine levels (cytokines not specified) ([2]; effects less dramatic than POPS and azPC)	proliferation of LPS-activated RAW 264.7 cells (RAW 264.7 cells)	CD3/CD28-induced activation of the NF-κB and ERK pathways [3]	CD3/CD28-induced phosphorylation of Bim (serine 69) and Bad (serine 112) [3]	IL-12p40 production ([2]; 2 μg/ml MBPAc1-11, 24 hours)	MBPAc1-11-induced IFN-γ production [2]	MBPAc1-11-induced IL-6 production [2]	MBPAc1-11-induced TNF production [2]	increase in T-cell apoptosis [4] [fold]	proliferation of activated B cells (B cells)	number of TUNEL-positive cells with lymphocyte morphology in brain and spinal cord [5]
CCCCCCCCCCCCCCCC(=O)OC[C@H](COP(=O)([O-])OCC[N+](C)(C)C)OC(=O)CCCC(=O)O [PGPC, 1-Palmitoyl-2-Glutaroyl-sn-Glycero-3-Phosphocholine]	secreted less IFN; also recorded: lower levels	lower levels	reduced levels of some of the cytokines	suppress proliferation	suppressed the CD3/CD28-induced activation	suppressed the CD3/CD28-induced phosphorylation	–	–	–	–	–	–	–
CCCCCCCC/C=C\CCCCCCCC(=O)O[C@H](COC(=O)CCCCCCCCCCCCCCC)COP(=O)(O)OC[C@H](N)C(=O)O [POPS, 1-Palmitoyl-2-Oleoyl-sn-Glycero-3-[Phospho-L-Serine]]	–	–	–	suppress proliferation	suppressed the CD3/CD28-induced activation	suppressed the CD3/CD28-induced phosphorylation	Neither POPS nor the oxidized phosphatidylcholine derivatives affected production	did not significantly reduce	reduced	reduced	> 5	modestly suppressed proliferation	increased the number of TUNEL-positive cells
CCCCCCCCCCCCCCCC(=O)OC[C@H](COP(=O)([O-])OCC[N+](C)(C)C)OC(=O)CCCCCCCC(=O)O [azPC, 1-Palmitoyl-2-Azelaoyl-sn-Glycero-3-Phosphocholine]	–	–	–	suppressed proliferation; also recorded: suppress proliferation	suppressed the CD3/CD28-induced activation	suppressed the CD3/CD28-induced phosphorylation	–	reduced	reduced	reduced	> 4	modestly suppressed proliferation	increased the number of TUNEL-positive cells
